Experimental data published in patent US11072585B2 (PharmAkea, Inc., priority 2015, dated 2021).
Where a name gives a salt, the structure may show the parent alone.

The compounds below were run against human LOXL2 (Homo sapiens (Human), UniProt Q9Y4K0) (assay: Human LOXL2 amine oxidase activity assay (Amplex Red)). Conditions: concentrated conditioned media from CHO cells stably expressing human LOXL2; 2 h at 37° C. with compound; DAP substrate.
Assay type: biochemical
Method: Example B-1: Human LOXL2 Amine Oxidase Activity Assay
LOXL2 amine oxidase activity is evaluated by measuring Amplex Red fluorescence using 10-20× concentrated conditioned media from CHO cells stably expressing human LOXL2. To assay for amine oxidase activity, 10 μL of the concentrated conditioned media is incubated with 2 μL of test compound in DMSO and 73 μL Assay Buffer (50 mM Borate Buffer, pH8) for 2 h at 37° C. After the 2 h incubation, 5 ul of 10 mM 1,5-Diaminopentane (DAP) diluted in Assay Buffer and 10 μl of Amplex Red Mix (8.5 μl Assay Buffer+0.5 μl of 10 mM Amplex Red+1 μl of 500 U/ml Horseradish Peroxidase) are added and the plate mixed and immediately placed on the FlexStaion for fluorescence measurements. Fluorescence is read in kinetic mode every 2 min for 1 hour at excitation=544 and emission=590. The amine oxidase activity is calculated from the slope of the linear portion of the curve.

Sequence of human LOXL2 (Q9Y4K0 26-774): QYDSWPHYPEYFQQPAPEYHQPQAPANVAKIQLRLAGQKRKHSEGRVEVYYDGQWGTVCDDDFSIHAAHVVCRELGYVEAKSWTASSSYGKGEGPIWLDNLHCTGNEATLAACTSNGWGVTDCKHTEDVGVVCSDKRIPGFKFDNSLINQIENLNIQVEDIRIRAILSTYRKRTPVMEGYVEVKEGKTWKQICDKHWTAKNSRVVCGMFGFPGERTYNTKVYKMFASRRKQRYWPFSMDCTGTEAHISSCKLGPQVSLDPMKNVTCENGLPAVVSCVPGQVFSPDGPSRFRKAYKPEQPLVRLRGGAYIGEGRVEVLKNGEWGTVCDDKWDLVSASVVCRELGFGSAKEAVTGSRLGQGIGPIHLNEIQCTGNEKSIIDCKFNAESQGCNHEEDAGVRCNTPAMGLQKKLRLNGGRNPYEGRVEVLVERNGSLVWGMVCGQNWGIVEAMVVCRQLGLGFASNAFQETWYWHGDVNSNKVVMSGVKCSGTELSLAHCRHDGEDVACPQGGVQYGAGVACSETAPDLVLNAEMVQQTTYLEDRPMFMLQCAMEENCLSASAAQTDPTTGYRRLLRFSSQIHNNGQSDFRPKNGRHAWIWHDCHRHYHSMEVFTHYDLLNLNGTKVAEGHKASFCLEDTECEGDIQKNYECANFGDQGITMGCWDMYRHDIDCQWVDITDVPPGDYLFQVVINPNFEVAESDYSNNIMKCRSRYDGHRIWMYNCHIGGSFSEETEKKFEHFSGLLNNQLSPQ

`NCc1cc(Oc2cccc(C(=O)Nc3nnco3)c2)nc(C(F)(F)F)c1` [Compound 1-228, 3-((4-(Aminomethyl)-6-(trifluoromethyl)pyridin-2-yl)oxy)-N-(1,3,4-oxadiazol-2-yl)benzamide hydrochloride] and `N#CC1CN(C(=O)c2cccc(Oc3cc(CN)cc(C(F)(F)F)n3)c2)C1` [Compound 1-199, 1-(3-((4-(Aminomethyl)-6-(trifluoromethyl)pyridin-2-yl)oxy)benzoyl)azetidine-3-carbonitrile trifluoroacetate] cannot be ordered by IC50: less than 300 nM for the first, less than 300 nM for the second.

First: CCc1cccc(NC(=O)c2cccc(Oc3cc(CN)cc(C(F)(F)F)n3)c2)c1 [Compound 1-245, 3-((4-(Aminomethyl)-6-(trifluoromethyl)pyridin-2-yl)oxy)-N-(3-ethylphenyl)benzamide hydrochloride]
Second: NCc1cc(Oc2cccc3c2CCC(=O)N3CC(=O)O)nc(C(F)(F)F)c1 [Compound 1-236, 2-(5-((4-(Aminomethyl)-6-(trifluoromethyl)pyridin-2-yl)oxy)-2-oxo-3,4-dihydroquinolin-1(2H)-yl)acetic acid hydrochloride]
The IC50 of the first is lower: less than 300 nM for the first, greater than 1000 nM for the second.

`NCc1cc(Oc2cccc(C(=O)NC[C@@H](O)CO)c2)nc(C(F)(F)F)c1` [Compound 1-33, (R)-3-((4-(Aminomethyl)-6-(trifluoromethyl)pyridin-2-yl)oxy)-N-(2,3-dihydroxypropyl)benzamide hydrochloride] and `CN(C)[C@@H]1CN(C(=O)c2cccc(Oc3cc(CN)cc(C(F)(F)F)n3)c2)C[C@H]1O` (racemic) [Compound 1-23, Racemic-trans-(3-((4-(aminomethyl)-6-(trifluoromethyl)pyridin-2-yl)oxy)phenyl)(-3-(dimethylamino)-4-hydroxypyrrolidin-1-yl)methanone hydrochloride] cannot be ordered by IC50: less than 300 nM for the first, less than 300 nM for the second.

Compared with `NCc1cc(Oc2cccc(C(=O)O)c2)nc(C(F)(F)F)c1` [Compound 1-224, 3-((4-(Aminomethyl)-6-(trifluoromethyl)pyridin-2-yl)oxy)benzoic acid hydrochloride], `NCc1cc(NCc2cccc(C(=O)Nc3ccccc3)c2)nc(C(F)(F)F)c1` [Compound 1-105, 3-(((4-(Aminomethyl)-6-(trifluoromethyl)pyridin-2-yl)amino)methyl)-N-phenylbenzamide hydrochloride] is lower in IC50: 300 to 1000 nM for the first, less than 300 nM for the second.

`NCc1cc(Oc2cccc(C(=O)N3CCC4(CC3)CNC(=O)O4)c2)nc(C(F)(F)F)c1` [Compound 1-27, 8-(3-((4-(Aminomethyl)-6-(trifluoromethyl)pyridin-2-yl)oxy)benzoyl)-1-oxa-3,8-diazaspiro[4.5]decan-2-one hydrochloride] and `NCc1cc(O[C@@H]2CCN(C(=O)Nc3ccccc3)C2)nc(C(F)(F)F)c1` [Compound 1-39, (R)-3-((4-(Aminomethyl)-6-(trifluoromethyl)pyridin-2-yl)oxy)-N-phenylpyrrolidine-1-carboxamide trifluoroacetate] cannot be ordered by IC50: less than 300 nM for the first, less than 300 nM for the second.

`Cc1cc(=O)n(Cc2cc(CN)cc(C(F)(F)F)n2)c(=O)n1Cc1ccncn1` [Compound 1-243, 3-((4-(Aminomethyl)-6-(trifluoromethyl)pyridin-2-yl)methyl)-6-methyl-1-(pyrimidin-4-ylmethyl)pyrimidine-2,4(1H,3H)-dione hydrochloride] and `C#C[C@@H](CC(=O)O)NC(=O)c1cccc(Oc2cc(CN)cc(C(F)(F)F)n2)c1` [Compound 1-223, (R)-3-(3-((4-(aminomethyl)-6-(trifluoromethyl)pyridin-2-yl)oxy)benzamido)pent-4-ynoic acid hydrochloride] fall in the same range of IC50: 300 to 1000 nM for the first, 300 to 1000 nM for the second.

First: C#C[C@H](CC(=O)O)NC(=O)c1cccc(Oc2cc(CN)cc(C(F)(F)F)n2)c1 [Compound 1-221, (S)-3-(3-((4-(aminomethyl)-6-(trifluoromethyl)pyridin-2-yl)oxy)benzamido)pent-4-ynoic acid]
Second: NCc1cc(O[C@H]2CCCN(C(=O)Cc3ccccc3)C2)nc(C(F)(F)F)c1 [Compound 1-46, (S)-1-(3-((4-(Aminomethyl)-6-(trifluoromethyl)pyridin-2-yl)oxy)piperidin-1-yl)-2-phenylethanone trifluoroacetate]
The IC50 of the first is higher: 300 to 1000 nM for the first, less than 300 nM for the second. The second is the more potent here.

`CS(=O)(=O)OC1CN(C(=O)c2cccc(Oc3cc(CN)cc(C(F)(F)F)n3)c2)CC1F` (stereo not shown) [Compound 1-214, hydrochloride] and `NCc1cc(Oc2cccc(-c3ccccc3)c2)nc(C(F)(F)F)c1` [Compound 1-2, (2-([1,1′-Biphenyl]-3-yloxy)-6-(trifluoromethyl)pyridin-4-yl)methanamine trifluoroacetate] cannot be ordered by IC50: less than 300 nM for the first, less than 300 nM for the second.

`NCc1cc(Oc2cccc(C(=O)NCc3nn[nH]n3)c2)nc(C(F)(F)F)c1` [Compound 1-13, N-((2H-Tetrazol-5-yl)methyl)-3-((4-(aminomethyl)-6-(trifluoromethyl)pyridin-2-yl)oxy)benzamide hydrochloride] and `NCc1cc(Oc2cccc(C(=O)Nc3ccccc3N)c2)nc(C(F)(F)F)c1` [Compound 1-225, 3-((4-(Aminomethyl)-6-(trifluoromethyl)pyridin-2-yl)oxy)-N-(2-aminophenyl)benzamide hydrochloride] cannot be ordered by IC50: less than 300 nM for the first, less than 300 nM for the second.

“N′-(4-(Aminomethyl)-6-(trifluoromethyl)pyridin-2-yl)-N^3-(2-(methylsulfonyl)ethyl)isophthalamide trifluoroacetate [Compound 1-242]” and `NCc1cc(Oc2cc(C(=O)N3C[C@@H](O)[C@H](F)C3)ccc2OCc2ccccc2)nc(C(F)(F)F)c1` (racemic) [Compound 1-231, Racemic-trans-(3-((4-(aminomethyl)-6-(trifluoromethyl)pyridin-2-yl)oxy)-4-(benzyloxy)phenyl)(3-fluoro-4-hydroxypyrrolidin-1-yl)methanone] cannot be ordered by IC50: less than 300 nM for the first, less than 300 nM for the second.

First: Cc1nnc(C(=O)N2CCC[C@H](Oc3cc(CN)cc(C(F)(F)F)n3)C2)o1 [Compound 1-51, (S)-(3-((4-(Aminomethyl)-6-(trifluoromethyl)pyridin-2-yl)oxy)piperidin-1-yl)(5-methyl-1,3,4-oxadiazol-2-yl)methanone trifluoroacetate]
Second: NCc1cc(Oc2cncc(C(=O)N3CC[C@@H](N)C3)c2)nc(C(F)(F)F)c1 [Compound 1-54, (R)-(5-((4-(Aminomethyl)-6-(trifluoromethyl)pyridin-2-yl)oxy)pyridin-3-yl)(3-aminopyrrolidin-1-yl)methanone dihydrochloride]
The IC50 of the first is higher: 300 to 1000 nM for the first, less than 300 nM for the second.

`NCc1cc(Oc2cc(O)cc(C(=O)N3C[C@@H](O)[C@H](F)C3)c2)nc(C(F)(F)F)c1` (racemic) [Compound 1-230, Racemic-trans-(3-((4-(aminomethyl)-6-(trifluoromethyl)pyridin-2-yl)oxy)-5-hydroxyphenyl)(3-fluoro-4-hydroxypyrrolidin-1-yl)methanone hydrochloride] and `NCc1cc(O[C@H]2CCCN(C(=O)c3cncnc3)C2)nc(C(F)(F)F)c1` [Compound 1-50, (S)-(3-((4-(Aminomethyl)-6-(trifluoromethyl)pyridin-2-yl)oxy)piperidin-1-yl)(pyrimidin-5-yl)methanone trifluoroacetate] cannot be ordered by IC50: less than 300 nM for the first, less than 300 nM for the second.

Compound `COC(=O)c1cccc(C(=O)Nc2cc(CN)cc(C(F)(F)F)n2)c1` [Compound 1-238, Methyl 3-((4-(aminomethyl)-6-(trifluoromethyl)pyridin-2-yl)carbamoyl)benzoate trifluoroacetate] has an IC50 of less than 300 nM.
